Each structure is given as a SMILES string. Converted amounts (≈) assume the structure as drawn. Read-outs that look alike come from different tables or passages of the source.

The source of these data is paper PMC3764026, “Adaptive Evolution of Escherichia coli to an α-Peptide/β-Peptoid Peptidomimetic Induces Stable Resistance” (PLoS ONE, 2013).

This test has as its system isolates from peptidomimetic 1-exposed E. coli ATCC 25922 lineages. As to conditions: for MIC in MHB: standard MHB media. As for the experimental part: Continuous selection of resistance was performed for peptidomimetic 1 (Figure 1) and for the clinically relevant natural antimicrobial peptide, polymyxin B. A bacterial suspension of a single colony of E. coli ATCC 25922 was re-inoculated (10 µl) five times in unsupplemented MHB (990 µl). It was then re-inoculated in MHB supplemented with peptidomimetic 1 (ten lineages) or polymyxin B (ten lineages), and after ten re-inoculations at constant peptidomimetic or polymyxin B concentration, the concentrations were doubled. […] Four lineages grown in MHB with MilliQ water were included as control. Re-inoculations were performed twice a day, but were reduced to once a day when growth was slower as assessed by turbidity of the cultures. The total number of passages (supplemented with peptidomimetic/AMP) was 77 times equivalent to approx. 500 generations. For each increase in concentration the lineages were preserved as freezing stocks. Ten colony isolates were randomly selected from each lineage population at 32×MIC and preserved as freezing stocks.
MIC was determined by using the micro-dilution method according to guidelines of the Clinical and Laboratory Standards Institute. Peptidomimetic 1 and erythromycin 1∶2 serial dilutions were prepared from 1024 µg/mL stock solutions to give a final range of 512-0.5 µg/mL in the wells. Ampicillin 1∶2 serial dilutions were prepared from a 256 µg/mL stock solution to give a final range of 128-0.13 µg/mL in the wells. Polymyxin B and gentamicin 1∶2 serial dilutions were prepared from a 64 µg/mL stock solution to give a final range of 32-0.03 µg/mL in the wells.
The population lineages were tested for their susceptibility towards peptidomimetic 1, polymyxin B, gentamicin and ampicillin. Single-culture isolates selected from these populations were additionally tested against peptidomimetic 1, polymyxin B, erythromycin and the five reference AMPs. To estimate the level of cross-resistance to closely related peptidomimetics, MIC determinations were performed for peptidomimetics 2 and 3 (Figure 1) towards selected isolates. The bacterial suspensions were grown overnight in MHB at 37°C for determination of the population MIC, or individual isolates were grown overnight on non-selective BHI agar at 37°C. […] In all experiments, bacterial cells were suspended in 0.9% saline to give a turbidity of 0.13 at OD546 (approximately 1×10^8 CFU/mL) and diluted in MHB pH 7.4 to a final concentration of 5×10^5 CFU/mL in each well. Polypropylene plates (Nunc 442587) were used to minimize peptide binding, and the incubation time was 18–20 hours at 37°C. […] MIC was found in a minimum of two technical (population MIC) or biological (isolate MIC) replicates as the lowest concentration of the AMP or antibiotic where no visible growth was observed.

Consider `CC(=O)N[C@@H](CCCCNC(=N)N)C(=O)N(CCC(=O)N[C@@H](CCCCNC(=N)N)C(=O)N(CCC(=O)N[C@@H](CCCCNC(=N)N)C(=O)N(CCC(=O)N[C@@H](CCCCNC(=N)N)C(=O)N(CCC(=O)N[C@@H](CCCCNC(=N)N)C(=O)N(CCC(=O)N[C@@H](CCCCNC(=N)N)C(=O)N(CCC(N)=O)[C@@H](C)c1ccccc1)[C@@H](C)c1ccccc1)[C@@H](C)c1ccccc1)[C@@H](C)c1ccccc1)[C@@H](C)c1ccccc1)[C@@H](C)c1ccccc1` [peptidomimetic 1], for which the “MIC of individual isolates” value was 8 µg/mL (eight out of ten isolates from lineage no. 4) and 8 µg/mL (seven out of ten isolates from lineage no. 5). Besides, the MIC of isolate by setting is: (isolate 2–3, first listed of three biological replicates) 8 µg/mL; (isolate 2–3, second listed of three biological replicates) 16 µg/mL; (isolate 2–3, third listed of three biological replicates) 64 µg/mL; (isolate 2–8, first listed of three biological replicates) 16 µg/mL; (isolate 2–8, second listed of three biological replicates) 64 µg/mL; (isolate 2–8, third listed of three biological replicates) 128 µg/mL. In addition, the “MIC in MHB” value by setting is: (isolate 2–7 (lineage 2)) 64 to 128 µg/mL; (isolate 4–4 (lineage 4)) 8 µg/mL (≈ 3.75 µM); (isolate 5–6 (lineage 5)) 32 to 64 µg/mL; (isolate 7–3 (lineage 7)) 128 µg/mL (≈ 60 µM). The “grouping of genome-sequenced isolates by MIC: high resistance” value (isolates 2–4, 2–6, 2–7, 2–9, 2–10, 7–3, 7–4, 7–7, wt MIC value 8 µg/mL) is listed as “High resistance isolates: 8–16 ×wt MIC”. For the setting “isolates 2–4 and 2–6 (shared values), two biological replicates, mean when results varied”, the MIC was 96 µg/mL (≈ 45 µM). For the same compound, the “grouping of genome-sequenced isolates by MIC: low resistance” value (isolates 4-1, 4-3, 5-6, 5-8, 5-9, wt MIC value 8 µg/mL) is “Low resistance isolates: 4–8 ×wt MIC”. In addition, for the setting “isolates 4–4, 4–6, 4–10, 5–2, 5–4, 7–9, 7–10, wt MIC value 8 µg/mL”, the “grouping of genome-sequenced isolates by MIC” value was “Isolates with wt MIC”. Further, the “MIC lower as compared to that of the lineage population (256 µg/mL)” value (the other two isolates from lineage no. 4) is recorded as 4 fold. The “MIC of individual isolates, span” value runs as follows: (the ten isolates from lineage no. 2, biological replicates) 8 to 128 µg/mL; (the ten isolates from lineage no. 7) 8 to 128 µg/mL.
